Where two headings read alike, the source gives them in different places.
What was measured:
[1] = biological target: CRAF (Homo sapiens, UniProt P04049); experiment: Kd for RAF kinases: CRAF; format: binding
[2] = biological target: BRAF (Homo sapiens, UniProt P15056); experiment: Kd for RAF kinases: BRAF; format: binding
[3] = system: ERK 1,2 phosphorylation in HCT116 cells expressing WT BRAF; experiment: HTRF assay for P-ERK determination in HCT116 cells (paradoxical BRAF activation); format: cell-based; conditions: for Emax: Homo sapiens, HCT-116, read-out: Percentage of maximum paradox inducing effect from dabrafenib; for EC50: read-out: P-ERK EC50 conc. at which the compound induces p-ERK activation of 50% of that induced by dabrafenib (Positive control paradox inducer) HCT-116, HCT-116 cells, 1 hour drug incubation, not applicable = activation does not reach 50% of dabrafenib maximum
Text: (§1) DMEM no-phenol red medium supplemented with L-glutamine was purchased from (Thermo Fisher Scientific). Fetal bovine serum (FBS) was purchased from VWR. Advanced ERK phospho-T202/Y204 kit-10,000 tests was purchased from Cisbio cat #64AERPEH. A375 and HCT116 cells were originally obtained from ATCC and banked by the Roche repository. 384-well microplates were purchased from Greiner Bio-One, 384-well, (With Lid, HiBase, Low volume cat 784-080).
(§2) A375 is a cellular cancer model expressing V600E mutated BRAF and HCT116 a cellular cancer model expressing WT BRAF. First generation BRAF inhibitors such as e.g. dabrafenib induce a paradox effect on tumour cells in that they inhibit the growth of V600E mutated BRAF cells (such as e.g. A375), while they activate growth in WT BRAF cells (such as e.g. HCT 116). ERK 1,2 phosphorylation (terminal member of the phosphorylation cascade of the MAPK pathway) is hereafter reported as main readout for the activation status of the MAPK pathway. Prior to the assay, A375 and HCT116 cell lines are maintained in DMEM no-phenol red medium supplemented with 10% fetal bovine serum (FBS). Following compound treatment, P-ERK levels are determined by measuring FRET fluorescence signal induced by selective binding of 2 antibodies provided in the mentioned kit (Cisbio cat #64AERPEH) on ERK protein when phosphorylated at Thr202/Tyr204. Briefly, 8000 cells/well in 12 μl media/well are plated in the 384-well plate and left overnight in the incubator (at 37° C. with 5% CO2-humidified atmosphere), the following day the plate is treated in duplicate with test compounds, dabrafenib and PLX8394 (the latter two as controls) at the following final drug concentrations: 10 μM-3 μM-1 μM-0.3 μM-0.1 μM-0.03 μM-0.01 μM-0.003 μM-0.001 μM, all wells are subjected to DMSO normalization and drug incubation occurs for 1 hour. Then, 4 μl of a 4× lysis buffer supplied with the kit are added to the wells, the plate is then centrifuged for 30 second (300 rcf) and incubated on a plate shaker for 1 h at RT.
(§3) At the end of the incubation 4 μL/well of advanced P-ERK antibody solution (prepared according to manufacturer's instruction) followed by 4 μL/well of criptate P-ERK antibody solution (prepared according to manufacturer's instruction) (Cisbio cat #64AERPEH) are added to test wells.
(§4) In order to allow proper data normalization control wells non drug treated reported in the following table are always included in each plate (according to manufacturer's instruction):
(§5) The plate is then centrifuged at 300 rcf for 30 second, sealed to prevent evaporation and incubated overnight in the dark at room temperature.
The plate is then analyzed and fluorescence emission value collected through a Pherastast FSX (BMG Labtech) apparatus at […].
(§6) The obtained fluorescence values are processed according to the formula Ratio=Signal (620 nm)/Signal (625 nm)*10000 then the average of the ratio on the blank is subtracted to all values.
Data are normalized in the case of HCT116 cells (BRAF activation) considering the average of the ratio (blank subtracted) derived by DMSO only treated cells as 0% and by considering the average of the ratio (blank subtracted) derived by dabrafenib treated cells at the concentration which provides the highest signal as 100%. Individual points are fitted with either sigmoidal or bell shape curves, and the percentage of activation compared to maximum dabrafenib-mediated activation is determined. The EC50 is the concentration at which activation equal to 50% of the maximum achieved by dabrafenib is obtained.
The Percentage of Maximum paradox inducing effect from dabrafenib is determined by evaluating the percentage at which the test compound induce its maximum P-ERK signal as percentage of the highest signal produced by dabrafenib within the dose range tested.

[4] = biological target: BRAF (V600E) (Homo sapiens, UniProt P15056, V600E); experiment: Kd for RAF kinases: BRAF (V600E); format: binding
Chain of BRAF (V600E) (P15056 whole entry V600E): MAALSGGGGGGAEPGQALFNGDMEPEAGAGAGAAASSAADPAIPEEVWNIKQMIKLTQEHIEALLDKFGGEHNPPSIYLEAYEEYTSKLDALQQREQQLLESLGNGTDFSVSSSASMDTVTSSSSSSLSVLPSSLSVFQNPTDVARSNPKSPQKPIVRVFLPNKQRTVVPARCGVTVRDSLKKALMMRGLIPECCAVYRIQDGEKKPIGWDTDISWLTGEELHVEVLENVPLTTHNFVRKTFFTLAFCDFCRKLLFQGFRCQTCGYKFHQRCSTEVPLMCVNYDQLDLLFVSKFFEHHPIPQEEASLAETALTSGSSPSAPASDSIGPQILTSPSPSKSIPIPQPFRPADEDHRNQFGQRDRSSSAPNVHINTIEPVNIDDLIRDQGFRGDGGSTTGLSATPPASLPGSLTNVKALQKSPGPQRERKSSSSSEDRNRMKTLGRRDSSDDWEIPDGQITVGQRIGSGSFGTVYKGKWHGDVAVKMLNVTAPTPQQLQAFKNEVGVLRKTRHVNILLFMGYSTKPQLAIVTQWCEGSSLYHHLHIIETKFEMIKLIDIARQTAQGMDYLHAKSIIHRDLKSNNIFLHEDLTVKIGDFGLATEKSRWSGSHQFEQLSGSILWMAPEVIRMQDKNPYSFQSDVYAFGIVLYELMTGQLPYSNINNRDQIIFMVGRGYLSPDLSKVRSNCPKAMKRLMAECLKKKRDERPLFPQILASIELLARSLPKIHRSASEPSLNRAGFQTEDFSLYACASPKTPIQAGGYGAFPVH

[5] = system: ERK 1,2 phosphorylation in A375 cells expressing V600E mutated BRAF; experiment: HTRF assay for P-ERK determination in A375 cells (BRAF inhibition); format: cell-based; conditions: Homo sapiens, A-375, 1 h, read-out: pERK IC50 A375
Text: as §1, with “repository.” for “repository. 384-well microplates were purchased from Greiner Bio-One, 384-well, (With Lid, HiBase, Low volume cat 784-080).”
as §2, with “First generation BRAF inhibitors such as e.g. dabrafenib induce a paradox effect on tumour cells in that they inhibit the growth of V600E mutated BRAF cells (such as e.g. A375), while they activate growth in WT BRAF cells (such as e.g. HCT 116).” left out, “Following compound treatment, P-ERK levels are determined by measuring FRET fluorescence signal induced by selective binding of 2 antibodies provided in the mentioned kit (Cisbio cat #64AERPEH) on ERK protein when phosphorylated at Thr202/Tyr204.” left out
as §3, §4, §5, §6
Data are normalized in the case of A375 cells (BRAF inhibition) considering the average of the ratio (blank subtracted) derived by DMSO only treated cells as 100% and by considering the average of the ratio (blank subtracted) derived by 10 uM dabrafenib treated cells as 0%. Mean of the normalized points are fitted with sigmoidal curve and IC50 determined.

Chain of BRAF (P15056 whole entry): as the sequence (P15056 whole entry V600E) above, with E600V counted along it
Chain of CRAF (P04049 whole entry): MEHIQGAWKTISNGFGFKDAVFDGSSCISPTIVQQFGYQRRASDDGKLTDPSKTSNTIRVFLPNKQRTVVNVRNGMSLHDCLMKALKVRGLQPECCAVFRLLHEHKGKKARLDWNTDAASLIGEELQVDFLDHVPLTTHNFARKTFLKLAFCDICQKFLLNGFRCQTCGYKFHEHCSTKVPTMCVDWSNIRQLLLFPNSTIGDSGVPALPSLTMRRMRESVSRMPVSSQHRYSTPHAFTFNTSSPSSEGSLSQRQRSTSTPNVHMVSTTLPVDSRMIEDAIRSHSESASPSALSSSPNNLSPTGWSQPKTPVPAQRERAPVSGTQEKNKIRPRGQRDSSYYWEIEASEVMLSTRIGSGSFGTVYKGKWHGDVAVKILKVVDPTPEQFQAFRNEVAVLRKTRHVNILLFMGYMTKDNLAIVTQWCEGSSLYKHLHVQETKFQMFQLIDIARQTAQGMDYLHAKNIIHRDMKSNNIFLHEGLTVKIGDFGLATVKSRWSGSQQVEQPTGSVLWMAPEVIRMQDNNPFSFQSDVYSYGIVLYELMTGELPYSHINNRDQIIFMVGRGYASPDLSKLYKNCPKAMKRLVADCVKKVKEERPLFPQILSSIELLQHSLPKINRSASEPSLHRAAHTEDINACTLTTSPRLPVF

Structure (SMILES) | Kd [1] | Kd [2] | Kd [4] | IC50 [5] | Kd ([2]; read-out: Kd BRAF) | EC50 [3] | Kd ([4]; read-out: Kd BRAF (V600E)) | Emax [3]
CCN(C)S(=O)(=O)Nc1ccc(F)c(Oc2ccc3ncn(C)c(=O)c3c2)c1C#N [Example 1, 6-[2-cyano-3-[[ethyl(methyl)sulfamoyl]amino]-6-fluoro-phenoxy]-3-methyl-4-oxo-quinazoline] | 6.3 nM | – | – | 5.5 nM | 1.6 nM | > 1000 nM | 3.4 nM | 56%
Cn1cnc2ccc(Oc3c(Cl)ccc(NS(=O)(=O)N4CCCC4)c3C#N)cc2c1=O [Example 4, N-[4-chloro-2-cyano-3-(3-methyl-4-oxo-quinazolin-6-yl)oxy-phenyl]pyrrolidine-1-sulfonamide] | 1.6 nM | 2.1 nM | 4.6 nM | 34.3 nM | – | 714 nM | – | 65%
CCN(C)S(=O)(=O)Nc1cccc(Oc2ccc3ncn(C)c(=O)c3c2)c1C#N [Example 5, 6-[2-cyano-3-[[ethyl(methyl)sulfamoyl]amino]phenoxy]-3-methyl-4-oxo-quinazoline] | 7.2 nM | 10.6 nM | 32.3 nM | 52.5 nM | – | > 1000 nM | – | 61%
Cn1cnc2ccc(Oc3cccc(NS(=O)(=O)N4CCCC4)c3C#N)cc2c1=O [Example 6, N-[2-cyano-3-(3-methyl-4-oxo-quinazolin-6-yl)oxy-phenyl]pyrrolidine-1-sulfonamide] | 1.1 nM | 1.6 nM | 2.6 nM | 17.1 nM | – | 648 nM | – | 59%
Cn1cnc2ccc(Oc3cccc(NS(=O)(=O)C4CCCCC4)c3C#N)cc2c1=O [Example 9, N-[2-cyano-3-(3-methyl-4-oxo-quinazolin-6-yl)oxy-phenyl]cyclohexanesulfonamide] | 0.8 nM | – | – | 13.9 nM | 2.4 nM | – | 4 nM | 44%
CCN(C)S(=O)(=O)Nc1cccc(Nc2ccc3ncn(C)c(=O)c3c2)c1C#N [Example 11, 6-[2-cyano-3-[[ethyl(methyl)sulfamoyl]amino]anilino]-3-methyl-4-oxo-quinazoline] | 52.3 nM | – | – | 19.7 nM | 11.6 nM | > 1000 nM | 26.5 nM | 61%
CCN(C)S(=O)(=O)Nc1ccc(Cl)c(Nc2ccc3ncn(C)c(=O)c3c2)c1C#N [Example 13, 6-[6-chloro-2-cyano-3-[[ethyl(methyl)sulfamoyl]amino]anilino]-3-methyl-4-oxo-quinazoline] | 6.8 nM | 4.3 nM | 10 nM | 14.8 nM | – | > 1000 nM | – | 67%
Cn1cnc2ccc(Nc3c(Cl)ccc(NS(=O)(=O)N4CCCC4)c3C#N)cc2c1=O [Example 14, N-[4-chloro-2-cyano-3-[(3-methyl-4-oxo-quinazolin-6-yl)amino]phenyl]pyrrolidine-1-sulfonamide] | 1.5 nM | – | – | 13.7 nM | 1.4 nM | 204 nM | 0.7 nM | 74%

Continued by falling Kd [1], values first:

Kd [1] | Kd [2] | Kd [4] | IC50 [5] | Kd ([2]; read-out: Kd BRAF) | EC50 [3] | Kd ([4]; read-out: Kd BRAF (V600E)) | Structure (SMILES) | Emax [3]
9.8 nM | 2 nM | 7.5 nM | 9.2 nM | – | – | – | Cn1cnc2ccc(Nc3cccc(NS(=O)(=O)N4CC[C@@H](F)C4)c3C#N)cc2c1=O [Example 12, (3R)—N-[2-cyano-3-[(3-methyl-4-oxo-quinazolin-6-yl)amino]phenyl]-3-fluoro-pyrrolidine-1-sulfonamide] | 49%
9.4 nM | 10 nM | 6.3 nM | 14.8 nM | – | > 1000 nM | – | Cn1cnc2ccc(Oc3c(Cl)ccc(NS(=O)(=O)N4CC[C@@H](F)C4)c3C#N)cc2c1=O [Example 3, (3R)—N-[4-chloro-2-cyano-3-(3-methyl-4-oxo-quinazolin-6-yl)oxy-phenyl]-3-fluoro-pyrrolidine-1-sulfonamide] | 61%
8.9 nM | 8.9 nM | 4.5 nM | 26.2 nM | – | – | – | Cn1cnc2ccc(Oc3cccc(NS(=O)(=O)N4CC[C@@H](F)C4)c3C#N)cc2c1=O [Example 7, (3R)—N-[2-cyano-3-(3-methyl-4-oxo-quinazolin-6-yl)oxy-phenyl]-3-fluoro-pyrrolidine-1-sulfonamide] | 32%
6.8 nM | 3.9 nM | 14.4 nM | 8.8 nM | – | – | – | CCC(C)S(=O)(=O)Nc1cccc(Oc2ccc3ncn(C)c(=O)c3c2)c1C#N (racemic) [Example 10, (RS)—N-[2-cyano-3-(3-methyl-4-oxo-quinazolin-6-yl)oxy-phenyl]butane-2-sulfonamide] | 21%
5.4 nM | 30.4 nM | 36.8 nM | 28.6 nM | – | > 1000 nM | – | CCN(C)S(=O)(=O)Nc1ccc(Cl)c(Oc2ccc3ncn(C)c(=O)c3c2)c1C#N [Example 2, 6-[6-chloro-2-cyano-3-[[ethyl(methyl)sulfamoyl]amino]phenoxy]-3-methyl-4-oxo-quinazoline] | 69%
1.8 nM | 3.3 nM | 7 nM | 5.3 nM | – | 412 nM | – | Cn1cnc2ccc(Oc3cccc(NS(=O)(=O)C4CCCC4)c3C#N)cc2c1=O [Example 8, N-[2-cyano-3-(3-methyl-4-oxo-quinazolin-6-yl)oxy-phenyl]cyclopentanesulfonamide] | 63%
0.8 nM | – | – | 1.6 nM | 0.4 nM | 172 nM | 0.9 nM | Cn1cnc2ccc(Oc3c(F)ccc(NS(=O)(=O)N4CCCC4)c3C#N)cc2c1=O [Example 15, N-[2-cyano-4-fluoro-3-(3-methyl-4-oxo-quinazolin-6-yl)oxy-phenyl]pyrrolidine-1-sulfonamide] | 63%

Source: patent publication US20220298145A1, “BRAF INHIBITORS AS PARADOX BREAKERS” (Hoffmann-La Roche Inc., priority 2019, published 2022)
